Earlier results in patent publication US20200230059A1, “Solid Micronized Melatonin Composition” (Physician's Seal, LLC, priority 2019, published 2020).
Like-named read-outs stand apart in the source and are kept apart here.

In the case of COc1ccc2[nH]cc(CCNC(C)=O)c2c1 [Melatonin], the solubility (gastric environment, pH approximately 1 to 3) is listed as “relatively high”, the solubility (lower GI tract environment, pH approximately 5.5 to 7) is listed as “decreases even further” and the solubility (upper GI tract environment, pH approximately 4.5 to 5.5) is listed as “decreases”.
